From US10590456B2, “Ribosomes with tethered subunits” (Northwestern University, priority 2014, dated 2020)

Test system: wild-type ribosomes
Assay: Antibiotic inhibition of orthogonal sf-gfp translation by wild-type ribosomes in cell-free system
Format: biochemical, E. coli
Conditions: pactamycin 100 μM
Experimental: Ribosomes (wild-type) or oRibo-T (mixed with wild-type ribosomes) were prepared from SQ171fg cells transformed with pAM552 or poRibo-T1, respectively. An orthogonal sf-gfp gene was PCR amplified from the plasmid pT7oGFP using primers […] (SEQ ID NO: 227) and […] (SEQ ID NO: 228). The transcription-translation reaction was carried out in Δ(ribosome, amino acid, tRNA) PURExpress system as described above. The 7.5 μl reactions were supplemented with 18.75 ng DNA template and 7.5 pmol ribosomes and when needed, clindamycin or pactamycin were added to the reactions to the final concentrations of 50 μM or 100 μM respectively.

With CC(=O)c1cccc(N[C@H]2[C@H](N)[C@@](NC(=O)N(C)C)([C@H](C)O)[C@@](C)(O)[C@@]2(O)COC(=O)c2c(C)cccc2O)c1 [Pactamycin] the “inhibition of the activity of wild-type ribosomes in the PURE translation system” value was “completely inhibited”.
